Row | melting point | SMILES
1 | 217.6 to 218.8 °C | O=C(c1ccc2c(=O)nc(-c3ccccn3)sc2c1)N1CCOCC1 [Example 240, 7-(4-Morpholinocarbonyl)-2-(2-pyridyl)-4H-1,3-benzothiazine-4-one]
2 | 230.7 to 232.2 °C | O=c1nc(-c2ccccn2)sc2cc(Br)ccc12 [Example 241, 7-Bromo-2-(2-pyridyl)-4H-1,3-benzothiazine-4-one]
3 | 263.7 to 264.2 °C | N#Cc1cccc(-c2nc(=O)c3ccccc3s2)n1 [Example 242, 6-(4-Oxo-4H-1,3-benzothiazin-2-yl)-s-pyridinecarbonitrile]
4 | 254 °C (dec.) | O=c1nc(-c2cccc(CP(=O)(O)O)n2)sc2ccccc12 [Example 244]
5 | 235.3 to 237.2 °C | O=c1nc(-c2cccc(CCP(=O)(O)O)n2)sc2ccccc12 [Example 246]
6 | 142 to 143.5 °C | CCSCc1cccc(-c2nc(=O)c3ccccc3s2)n1 [Example 249, 2-[6-[(Ethylthio)methyl]-2-pyridyl]-4H-1,3-benzothiazine-4-one]
7 | 188.5 to 190 °C | CC[S+]([O-])Cc1cccc(-c2nc(=O)c3ccccc3s2)n1 (centres unmarked) [Example 250, 2-[6-[(Ethylsulfinyl)methyl]-2-pyridyl]-4H-1,3-benzothiazine-4-one]
8 | 188.5 to 190 °C | CCS(=O)(=O)Cc1cccc(-c2nc(=O)c3ccccc3s2)n1 [Example 251, 2-[6-[(Ethylsulfonyl)methyl]-2-pyridyl]-4H-1,3-benzothiazine-4-one]
9 | 171 to 173 °C | CCC[S+]([O-])Cc1cccc(-c2nc(=O)c3ccccc3s2)n1 (centres unmarked) [Example 253]
10 | 177 to 179 °C | CCCS(=O)(=O)Cc1cccc(-c2nc(=O)c3ccccc3s2)n1 [Example 254, 2-[6-[(n-Propylsulfonyl)methyl]-2-pyridyl]-4H-1,3-benzothiazine-4-one]
11 | 126 to 128 °C | O=c1nc(-c2cccc(CSCc3ccccc3)n2)sc2ccccc12 [Example 255, 2-[6-[(Benzylthio)methyl]-2-pyridyl]-4H-1,3-benzothiazine-4-one]
12 | 187 to 189 °C | O=c1nc(-c2cccc(C[S+]([O-])Cc3ccccc3)n2)sc2ccccc12 (centres unmarked) [Example 256, 2-[6-[(Benzylsulfinyl)methyl]-2-pyridyl]-4H-1,3-benzothiazine-4-one]
13 | 246 to 248 °C | O=c1nc(-c2cccc(CS(=O)(=O)Cc3ccccc3)n2)sc2ccccc12 [Example 257, 2-[6-[(Benzylsulfonyl)methyl]-2-pyridyl]-4H-1,3-benzothiazine-4-one]
14 | 108 to 110 °C | COC(=O)CSCc1cccc(-c2nc(=O)c3ccccc3s2)n1 [Example 258, Methyl ({[6-(4-oxo-4H-1,3-benzothiazin-2-yl)-2-pyridyl]methyl}thio)acetate]
15 | 149.5 to 151 °C | COC(=O)C[S+]([O-])Cc1cccc(-c2nc(=O)c3ccccc3s2)n1 (centres unmarked) [Example 259, Methyl ({[6-(4-oxo-4H-1,3-benzothiazin-2-yl)-2-pyridyl]methyl}sulfinyl)acetate]
16 | 205 to 207 °C | COC(=O)CS(=O)(=O)Cc1cccc(-c2nc(=O)c3ccccc3s2)n1 [Example 260, Methyl ({[6-(4-oxo-4H-1,3-benzothiazin-2-yl)-2-pyridyl]methyl}sulfonyl)acetate]
17 | 195 to 196.5 °C | C[S+]([O-])c1ccc(-c2nc(=O)c3ccccc3s2)cn1 (centres unmarked) [Example 261, 2-[6-(Methylsulfinyl)-3-pyridyl]-4H-1,3-benzothiazine-4-one]
18 | 205 to 207 °C | CS(=O)(=O)c1ccc(-c2nc(=O)c3ccccc3s2)cn1 [Example 262, 2-[6-(Methylsulfonyl)-3-pyridyl]-4H-1,3-benzothiazine-4-one]
19 | 172.5 to 174 °C | C[S+]([O-])c1cc(-c2nc(=O)c3ccccc3s2)ccn1 (centres unmarked) [Example 263, 2-[2-(Methylsulfinyl)-4-pyridyl]-4H-1,3-benzothiazine-4-one]
20 | 189.5 to 191.5 °C | CS(=O)(=O)c1cc(-c2nc(=O)c3ccccc3s2)ccn1 [Example 264, 2-[2-(Methylsulfonyl)-4-pyridyl]-4H-1,3-benzothiazine-4-one]
21 | 156 to 157 °C | O=c1nc(-c2cccc(CN3CCN(c4ccc(F)cc4)CC3)n2)sc2ccccc12 [Example 265, 2-(6-{[4-(4-Fluorophenyl)-1-piperazinyl]methyl}-2-pyridyl)-4H-1,3-benzothiazine-4-one]
22 | 162 to 163 °C | O=c1nc(-c2cccc(CN3CCCCC3)n2)sc2ccccc12 [Example 266, 2-[6-(1-Piperidinomethyl)-2-pyridyl]-4H-1,3-benzothiazine-4-one]
23 | 207 to 208 °C | O=c1nc(-c2cccc(CN3CCC(c4ccccc4)CC3)n2)sc2ccccc12 [Example 267, 2-{6-[(4-Phenyl-1-piperidyl)methyl]-2-pyridyl}-4H-1,3-benzo thiazine-4-one]
24 | 151 to 153 °C | O=c1nc(-c2cccc(CN3CCC(Cc4ccccc4)CC3)n2)sc2ccccc12 [Example 268, 2-{6-[(4-Benzyl-1-piperidyl)methyl]-2-pyridyl}-4H-1,3-benzo thiazine-4-one]

Row | melting point | SMILES
25 | 245.2 to 245.8 °C | O=c1nc(-c2cccc(Sc3ncccn3)n2)sc2ccccc12 [Example 270, 2-[6-(2-Pyrimidinylthio)-2-pyridyl]-4H-1,3-benzothiazine-4-one]
26 | 171.9 to 172.3 °C | Cn1ccnc1Sc1cccc(-c2nc(=O)c3ccccc3s2)n1 [Example 271, 2-{6-[(1-Methyl-1H-imidazol-2-yl)thio]-2-pyridyl}-4H-1,3-benzothiazine-4-one]
27 | 151.3 to 151.9 °C | O=c1nc(-c2cccc(CSc3ccccn3)n2)sc2ccccc12 [Example 272, 2-{6-[(2-Pyridylthio)methyl]-2-pyridyl}-4H-1,3-benzothiazine-4-one]
28 | 181.9 to 182.5 °C | O=c1nc(-c2cccc(CSc3ccncc3)n2)sc2ccccc12 [Example 273, 2-{6-[(4-pyridylthio)methyl]-2-pyridyl}-4H-1,3-benzothiazine-4-one]
29 | 245.2 to 245.8 °C | O=c1nc(-c2cccc(Sc3ccncc3)n2)sc2ccccc12 [Example 274, 2-[6-(4-Pyridylthio)-2-pyridyl]-4H-1,3-benzothiazine-4-one]
30 | 169.5 to 170 °C | CC(C)(C)OC(=O)CSc1cccc(-c2nc(=O)c3ccccc3s2)n1 [Example 275, tert-Butyl {[6-(4-oxo-4H-1,3-benzothiazin-2-yl)-2-pyridyl]thio}acetate]
31 | 258 to 260 °C | O=C(O)CSc1cccc(-c2nc(=O)c3ccccc3s2)n1 [Example 276, [6-(4-Oxo-4H-1,3-benzothiazin-2-yl)-2-pyridyl]thioacetic acid]
32 | 124.5 to 125 °C | CCOC(=O)CSc1cccc(-c2nc(=O)c3ccccc3s2)n1 [Example 277, Ethyl {[6-(4-oxo-4H-1,3-benzothiazin-2-yl)-2-pyridyl]thio}acetate]
33 | 158.8 to 159.1 °C | CC(C)(C)OC(=O)C[S+]([O-])c1cccc(-c2nc(=O)c3ccccc3s2)n1 (centres unmarked) [Example 278, tert-Butyl {[6-(4-oxo-4H-1,3-benzothiazin-2-yl)-2-pyridyl]sulfinyl}acetate]
34 | 186.5 to 188 °C | O=C(O)C[S+]([O-])c1cccc(-c2nc(=O)c3ccccc3s2)n1 (centres unmarked) [Example 279, [6-(4-Oxo-4H-1,3-benzothiazin-2-yl)-2-pyridyl]sulfinylacetic acid]
35 | 159 to 160 °C | CC(C)(C)OC(=O)CS(=O)(=O)c1cccc(-c2nc(=O)c3ccccc3s2)n1 [Example 280, tert-Butyl {[6-(4-oxo-4H-1,3-benzothiazin-2-yl)-2-pyridyl]sulfonyl}acetate]
36 | 192 to 193.5 °C | O=C(O)CS(=O)(=O)c1cccc(-c2nc(=O)c3ccccc3s2)n1 [Example 281, [6-(4-Oxo-4H-1,3-benzothiazin-2-yl)-2-pyridyl]sulfonylacetic acid]
37 | 256.7 to 257 °C | NC(=O)CSc1cccc(-c2nc(=O)c3ccccc3s2)n1 [Example 282]
38 | 223.5 to 224 °C | CSc1nccc(-c2nc(=O)c3ccccc3s2)n1 [Example 284, 2-[2-(Methylthio)-6-pyrimidinyl]-4H-1,3-benzothiazine-4-one]
39 | 250.5 to 252 °C | C[S+]([O-])c1nccc(-c2nc(=O)c3ccccc3s2)n1 (centres unmarked) [Example 285, 2-[2-(Methylsulfinyl)-6-pyrimidinyl]-4H-1,3-benzothiazine-4-one]
40 | 269.5 to 270 °C | CS(=O)(=O)c1nccc(-c2nc(=O)c3ccccc3s2)n1 [Example 286, 2-[2-(Methylsulfonyl)-6-pyrimidinyl]-4H-1,3-benzothiazine-4-one]
41 | 202.4 to 202.9 °C | CSc1cncc(-c2nc(=O)c3ccccc3s2)n1 [Example 287, 2-[6-(Methylthio)-2-pyrazinyl]-4H-1,3-benzothiazine-4-one]
42 | 228.5 to 230.5 °C | C[S+]([O-])c1cncc(-c2nc(=O)c3ccccc3s2)n1 (centres unmarked) [Example 288, 2-[6-(Methylsulfinyl)-2-pyrazinyl]-4H-1,3-benzothiazine-4-one]
43 | 232 to 233 °C | CS(=O)(=O)c1cncc(-c2nc(=O)c3ccccc3s2)n1 [Example 289, 2-[6-(Methylsulfonyl)-2-pyrazinyl]-4H-1,3-benzothiazine-4-one]
44 | 248 to 249 °C | CN(C)c1cncc(-c2nc(=O)c3ccccc3s2)n1 [Example 290, 2-[6-(Dimethylamino)-2-pyrazinyl]-4H-1-benzothiazine-4-one]
45 | 189 to 190.5 °C | CN(CC(=O)OC(C)(C)C)c1cncc(-c2nc(=O)c3ccccc3s2)n1 [Example 291, tert-Butyl {methyl[6-(4-oxo-4H-1,3-benzothiazin-2-yl)-2-pyrazinyl]amino}acetate]
46 | 283 °C (dec.) | CN(CC(=O)O)c1cncc(-c2nc(=O)c3ccccc3s2)n1 [Example 292, {Methyl[6-(4-oxo-1,3-benzothiazin-2-yl)-2-pyrazinyl]amino}acetic acid]
47 | 186.5 to 188 °C | CN(CC(=O)OC(C)(C)C)c1nccc(-c2nc(=O)c3ccccc3s2)n1 [Example 293, tert-Butyl {methyl [6-(4-oxo-4H-1,3-benzothiazin-2-yl)-2-pyrimidinyl]amino}acetate]

Source: patent US7767665B2, “1,3-benzothiazinone derivatives and use thereof” (Takeda Pharmaceutical Company Limited, priority 2001, dated 2010)
